Data set [1] in a line: Metabolic (microsomal) stability assay. The format is in vitro ADME. Conditions: mouse liver microsomes, T1/2; read-out: DMPK-invitro-metabolic Stability (Mouse T1/2). From the text:
Example 12: Metabolic (Microsomal) Stability Assay
(Liver microsomes are vesicles of endoplasmic reticulum, rich in cytochrome P450 enzymes.)

Data set [2] deals with NCI-H1975 cells (EGFR T790M L858R). The data set is described as follows: EGFR-SOS cellular inhibition assay (CellTiter-Glo, 3D). The format is cell-based. Conditions: Homo sapiens. Background: Cellular ATP, detected with luciferase, serves as a proxy for viable cell number.
Data set [3] concerns ERK phosphorylation (p-ERK 1/2 Thr202/Tyr204) in MIA PaCa-2 or NCI-H1975 cells. The data set is described as follows: ERK phosphorylation assay (AlphaLISA p-ERK 1/2). The format is cell-based. Conditions: MIA PaCa-2 cells or EGFR mutant NCI-H1975 cells; read-out: IC50 for the inhibition of ERK phosphorylation. How it is done:
MIA PaCa-2 cells (ATCC CRL-1420) expressing K-Ras G12C is grown in DMEM/Ham's F12 medium supplemented with 10% fetal calf serum, glutamine and ˜2.5% horse serum. Alternatively, other cell lines with aberrant Ras signaling output can be utilized. Non-limiting exemplary cell lines include NCI-H358 and H1975. Cells are plated in 96-well plates at a concentration of 40,000 cells/well and allowed to attach for at least 8 hours. Following, diluted solutions of test inhibitor compounds are added to the cell culture. After ˜2 hours of incubation, the medium is removed and lysis buffer from AlphaLISA® SureFire® Ultra™ p-ERK 1/2 (Thr202/Tyr204) assay kit (Perkin Elmer ALSU-PERK-A10K) is added to the cells. The plate is agitated for 10 min at room temperature and 10 μL of the lysate is transferred to a 384-well Optiplate™ (Perkin Elmer) for assay. Thereafter ˜5 μL of Acceptor Mix from the p-ERK AlphaLISA assay kit is added to wells and plate is sealed with adhesive film. The samples are incubated for one hour at room temperature. Following, 5 μL of Donor Mix is added to the wells and plate is re-sealed with adhesive film, and incubated for one hour at room temperature. The plate is then read on a multimode microplate reader (e.g., SPARK©Tecan) equipped with Alpha detection module. The data can be fitted to four-parameter dose-response curve using Prism version 9 (GraphPad) to calculate an IC50 for the inhibition of ERK phosphorylation. […] 355, 332, 366, 216, 264, 356, 266, in an ERK phosphorylation assay utilizing either MIA PaCa-2 cells (ATCC CRL-1420) or EGFR mutant cell line (NCI-H1975 (ATCC CRL-5908)).
For orientation: In Alpha technology, singlet oxygen from a donor bead excites a nearby acceptor bead.

In data set [4] the test system is MIA PaCa-2 cells (K-Ras G12C). In words: Ras-SOS cellular growth inhibition assay (CellTiter-Glo, 3D). The format is cell-based. Particulars: Homo sapiens. The method in brief: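 MIA PaCa-2 cells grown in ultra-low-attachment plates (3D) in DMEM/Ham's F12 with 10% FCS and 2.5% horse serum, treated the day after seeding with a 9-point 3-fold compound series for about 5 days. Viability by CellTiter-Glo luminescence; IC50 from four-parameter fit.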

Data set [5] has as its target SOS1 (Homo sapiens (Human), UniProt Q07889). In words: Ras-SOS interaction assay (HTRF). The format is biochemical.
Data set [6] in a line: In vitro plasma protein binding (PPB). The format is in vitro ADME. Conditions: percentage of free/unbound compound.

Molecules are shown by their SMILES. Where two headings read alike, the source gives them in different places. Some results are limits rather than exact numbers.

Sequence of SOS1 (Q07889 564-1049): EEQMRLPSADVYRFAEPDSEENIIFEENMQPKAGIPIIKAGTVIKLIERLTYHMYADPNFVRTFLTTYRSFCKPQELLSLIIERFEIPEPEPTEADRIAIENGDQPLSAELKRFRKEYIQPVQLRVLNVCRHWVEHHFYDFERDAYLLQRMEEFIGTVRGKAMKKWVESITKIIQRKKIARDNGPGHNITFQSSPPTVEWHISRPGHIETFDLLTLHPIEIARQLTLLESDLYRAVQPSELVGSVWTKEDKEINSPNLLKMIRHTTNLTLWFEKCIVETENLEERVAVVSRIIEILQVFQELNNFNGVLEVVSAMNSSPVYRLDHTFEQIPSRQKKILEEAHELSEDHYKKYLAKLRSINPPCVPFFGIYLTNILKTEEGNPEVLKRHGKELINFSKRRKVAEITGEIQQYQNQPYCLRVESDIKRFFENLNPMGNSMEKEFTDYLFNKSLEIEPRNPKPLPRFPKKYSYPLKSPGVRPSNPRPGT

The term IC50 denotes the midpoint of a concentration-inhibition curve. Consider `COc1nc2nc(C)nc(N[C@H](C)c3cccc(C(F)(F)[C@@H](C)O)c3F)c2cc1C1(C#N)CC1` [Compound 332, 1-(4-(((R)-1-(3-((R)-1,1-difluoro-2-hydroxypropyl)-2-fluorophenyl)ethyl)amino)-7-methoxy-2-methylpyrido[2,3-d]pyrimidin-6-yl)cyclopropane-1-carbonitrile], for which the half-life in data set [1] stood at 30.1 min. The 50% inhibitory concentration (IC50) is ≤ 1000 nM in data set [2] (120 h, NCI-H1975, 3D proliferation, about 5 days, read-out: Bio-Cell-Prolif-3D (H1975 IC50)); < 500 nM in data set [2] (NCI-H1975, EGFR T790M L858R, read-out: IC50 in inhibiting growth of NCI-H1975 cell line); < 1000 nM in data set [3]; ≤ 1000 nM in data set [4] (MIA PaCa-2, 120 h, MIA PaCa-2, 3D proliferation, about 5 days, read-out: Bio-Cell-Prolif-3D (MiaPaca2 IC50)); < 500 nM in data set [4] (MIA PaCa-2, MIA PaCa-2, read-out: IC50 in inhibiting MIA PaCa-2 cell growth); < 100 nM in data set [5] (K-RasG13D utilized, read-out: IC50 inhibition of SOS). In addition, the IC50 in data set [5] (K-RasG13D, read-out: IC50 value against SOS1) is < 50 nM. Further, the “DMPK-invitro-PPB (Mouse Unbound) [%]” value in data set [6] is on record as 0.3%.

The values above are taken from patent US11648254B2 (Kumquat Biosciences Inc., priority 2021, dated 2023).
